Measurements: the supplement of paper PMC10307832

Key:
Test in all cases: relative viability (nuclei count vs DMSO), 5 days (fraction); higher = more cells survive
[1] = compound: C[C@]1(c2nc3c(C(N)=O)cccc3[nH]2)CCCN1 [Veliparib] + O=C(c1cc(Cc2n[nH]c(=O)c3ccccc23)ccc1F)N1CCN(C(=O)C2CC2)CC1 [Olaparib] (partner 8 µM)
In short: (§1)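 Relative viability is defined as nuclei in treated wells over nuclei in vehicle wells. Duplicate plates were run and medians reported. Lung cancer cell lines in 1536-well plates were dosed by pin tool one day after seeding, with one drug or with a fixed anchor-drug dose plus five library-drug doses (not always all listed) in √10 steps, and nuclei were counted after 5 days.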

[2] = compound: COC1=CC=C(C=C1)CN2C=CC3=C2C=C(C=C3)C(=O)NO + Cc1nc(Nc2ncc(C(=O)Nc3c(C)cccc3Cl)s2)cc(N2CCN(CCO)CC2)n1 [Dasatinib] (partner 0.075 µM)
In short: as §1

[3] = compound: COC1=CC=C(C=C1)CN2C=CC3=C2C=C(C=C3)C(=O)NO + CS(=O)(=O)CCNCc1ccc(-c2ccc3ncnc(Nc4ccc(OCc5cccc(F)c5)c(Cl)c4)c3c2)o1 [Lapatinib] (partner 2 µM)
In short: as §1

[4] = compound: C[C@]1(c2nc3c(C(N)=O)cccc3[nH]2)CCCN1 [Veliparib] + C[C@@H](Oc1cc(-c2cnn(C3CCNCC3)c2)cnc1N)c1c(Cl)ccc(F)c1Cl [Crizotinib] (partner 1 µM)
In short: as §1

| Cell Line | relative viability ([1]; first compound 0.02 µM) | relative viability ([1]; first compound 0.06325 µM) | relative viability ([1]; first compound 0.2 µM) | relative viability ([1]; first compound 0.6325 µM) | relative viability ([1]; first compound 2 µM) | relative viability ([2]; first compound 0.08 µM) | relative viability ([2]; first compound 0.253 µM) | relative viability ([2]; first compound 0.8 µM) | relative viability ([2]; first compound 2.53 µM) | relative viability ([2]; first compound 8 µM) | relative viability ([3]; first compound 0.253 µM) | relative viability ([3]; first compound 0.8 µM) | relative viability ([3]; first compound 2.53 µM) | relative viability ([3]; first compound 8 µM) | relative viability ([4]; first compound 0.02 µM) | relative viability ([4]; first compound 0.06325 µM) | relative viability ([4]; first compound 0.2 µM) | relative viability ([4]; first compound 0.6325 µM) | relative viability ([4]; first compound 2 µM) | relative viability ([3]; first compound 0.08 µM) |
| --- | --- | --- | --- | --- | --- | --- | --- | --- | --- | --- | --- | --- | --- | --- | --- | --- | --- | --- | --- | --- |
| HCC-78 | 0.755 | 0.745 | 0.82 | 0.742 | 0.806 | 0.436 | 0.362 | 0.391 | 0.449 | 0.39 | 0.706 | 0.731 | 0.715 | 0.733 | 0.342 | 0.3 | 0.409 | 0.383 | 0.352 | – |
| HCC-366 | 0.431 | 0.374 | 0.401 | 0.303 | 0.353 | 0.483 | 0.639 | 0.658 | 0.526 | 0.574 | 0.992 | 1.06 | 1.04 | 1.07 | 0.592 | 0.38 | 0.543 | 0.401 | 0.419 | – |
| HCC-827 | 0.629 | 0.634 | 0.561 | 0.585 | 0.615 | 0.429 | 0.395 | 0.277 | 0.297 | 0.275 | 0.212 | 0.168 | 0.181 | 0.178 | 0.913 | 0.919 | 0.947 | 0.921 | 0.905 | 0.189 |
| HOP-62 | – | 0.347 | 0.364 | 0.342 | 0.383 | 0.601 | 0.72 | 0.658 | 0.66 | 0.529 | 1.1 | 1.08 | 0.997 | 0.973 | 0.981 | 0.795 | 0.836 | 0.866 | 0.933 | 0.225 |
| IA-LM | 0.896 | 0.702 | 0.743 | 0.678 | 0.74 | – | – | – | – | – | 0.662 | 0.952 | 0.966 | 0.541 | 0.947 | 0.689 | 0.743 | 0.753 | 0.75 | 0.551 |
| LC-2-ad | 0.744 | 0.68 | 0.662 | 0.756 | 0.681 | 0.407 | 0.633 | 0.582 | 0.677 | 0.349 | 0.948 | 0.972 | 0.931 | 0.92 | 0.458 | 0.396 | 0.483 | 0.46 | 0.443 | 0.259 |
| LCLC-97TM1 | 0.433 | 0.475 | 0.439 | 0.233 | 0.527 | 0.294 | 0.667 | 0.938 | 0.801 | 0.721 | 0.872 | 1.26 | 0.911 | 0.806 | 0.248 | 0.349 | 0.354 | – | 0.234 | – |
| LCLC-103H | 0.753 | 0.74 | 0.826 | 0.75 | 0.745 | 0.553 | 0.506 | 0.62 | 0.539 | 0.392 | – | – | – | – | 1.1 | 0.982 | 1.02 | 0.875 | 1.09 | – |
| LK-2 | 0.696 | 0.629 | 0.659 | 0.757 | 0.85 | – | 0.358 | 0.335 | 0.298 | 0.293 | 0.909 | 0.932 | 0.955 | 0.82 | – | 0.179 | 0.149 | 0.232 | 0.183 | – |
| LOU-NH91 | 0.882 | 0.901 | 0.978 | 0.876 | 0.95 | 0.516 | 0.532 | 0.54 | 0.593 | 0.523 | 0.745 | 0.825 | 0.733 | 0.725 | 0.729 | 0.719 | 0.745 | 0.688 | 0.774 | 0.561 |
| LU99A | 0.252 | 0.266 | 0.257 | 0.265 | 0.31 | – | 0.606 | 0.649 | 0.711 | 0.439 | 0.92 | 0.961 | 0.957 | 0.891 | 0.604 | 0.527 | 0.46 | 0.44 | 0.625 | – |
| NCI-H441 | 0.691 | 0.637 | 0.573 | 0.598 | 0.595 | 0.613 | 0.621 | 0.623 | 0.567 | 0.485 | – | – | – | – | 0.663 | 0.645 | 0.745 | 0.593 | 0.63 | – |
| NCI-H522 | 0.678 | 0.593 | 0.667 | 0.57 | 0.566 | – | 0.904 | 1.12 | 0.781 | 0.765 | – | – | – | – | – | – | – | – | – | – |
| NCI-H1299 | 1.03 | 0.949 | 0.925 | 0.963 | 1.03 | – | – | – | – | – | 0.979 | 0.969 | 0.934 | 0.923 | 1.04 | 0.945 | 0.95 | 0.928 | 0.948 | 0.959 |
| NCI-H1395 | 0.435 | 0.395 | 0.448 | 0.415 | 0.471 | 0.394 | 0.381 | 0.431 | 0.446 | 0.35 | 0.851 | 0.937 | 0.93 | 0.778 | – | – | – | – | – | 0.674 |
| NCI-H1563 | – | – | – | – | – | 0.435 | 0.485 | 0.436 | 0.433 | 0.399 | 0.939 | 0.953 | 0.862 | 0.748 | 0.91 | 0.762 | 0.89 | 0.857 | 0.808 | 0.769 |
| NCI-H1648 | 0.948 | – | – | 0.7 | 0.919 | – | – | – | – | – | – | – | – | – | – | – | – | – | – | – |
| NCI-H1703 | 0.514 | 0.292 | 0.397 | 0.56 | 0.501 | – | – | – | – | – | 1.16 | 1.1 | 1.07 | 0.873 | 0.835 | 0.76 | 1.06 | 0.778 | 0.75 | 0.691 |
| NCI-H1793 | 0.954 | 0.976 | 0.827 | 0.851 | 1.01 | – | 0.354 | 0.382 | 0.4 | 0.412 | 0.751 | 0.688 | 0.705 | 0.598 | – | – | – | – | – | 0.343 |
| NCI-H2342 | 0.383 | 0.461 | 0.469 | 0.41 | 0.474 | 0.297 | 0.321 | 0.305 | 0.304 | 0.313 | – | – | – | – | – | – | – | – | – | – |
| SW 900 | – | 0.724 | 0.939 | 0.722 | 0.818 | 0.541 | 0.556 | 0.628 | 0.629 | 0.334 | – | – | – | – | – | – | – | – | – | – |
